Consider 17 compounds from ChEMBL document CHEMBL3351512, “Studies on molecular properties prediction and histamine H3 receptor affinities of novel ligands with uracil-based motifs” (Eur J Med Chem, 2014).

The structures appear in SMILES notation.

Chain of Histamine H3 receptor (Homo sapiens, UniProt Q9Y5N1) (Q9Y5N1 whole entry): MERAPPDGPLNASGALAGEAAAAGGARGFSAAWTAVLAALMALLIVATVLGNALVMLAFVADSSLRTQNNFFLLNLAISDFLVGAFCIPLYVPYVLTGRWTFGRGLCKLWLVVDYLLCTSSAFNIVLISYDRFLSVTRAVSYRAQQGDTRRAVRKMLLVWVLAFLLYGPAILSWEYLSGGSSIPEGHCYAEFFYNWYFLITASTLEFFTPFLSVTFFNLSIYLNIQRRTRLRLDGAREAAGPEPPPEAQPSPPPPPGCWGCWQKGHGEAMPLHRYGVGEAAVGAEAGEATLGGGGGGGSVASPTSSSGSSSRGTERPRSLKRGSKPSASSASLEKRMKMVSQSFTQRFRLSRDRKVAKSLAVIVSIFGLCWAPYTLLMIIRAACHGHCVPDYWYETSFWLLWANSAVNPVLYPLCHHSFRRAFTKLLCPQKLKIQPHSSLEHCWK

One experiment deals with Histamine H3 receptor (Rattus norvegicus, UniProt Q9QYN8). In words: Binding affinity to rat H3 receptor.
Chain of Histamine H3 receptor (Rattus norvegicus, UniProt Q9QYN8) (Q9QYN8 whole entry): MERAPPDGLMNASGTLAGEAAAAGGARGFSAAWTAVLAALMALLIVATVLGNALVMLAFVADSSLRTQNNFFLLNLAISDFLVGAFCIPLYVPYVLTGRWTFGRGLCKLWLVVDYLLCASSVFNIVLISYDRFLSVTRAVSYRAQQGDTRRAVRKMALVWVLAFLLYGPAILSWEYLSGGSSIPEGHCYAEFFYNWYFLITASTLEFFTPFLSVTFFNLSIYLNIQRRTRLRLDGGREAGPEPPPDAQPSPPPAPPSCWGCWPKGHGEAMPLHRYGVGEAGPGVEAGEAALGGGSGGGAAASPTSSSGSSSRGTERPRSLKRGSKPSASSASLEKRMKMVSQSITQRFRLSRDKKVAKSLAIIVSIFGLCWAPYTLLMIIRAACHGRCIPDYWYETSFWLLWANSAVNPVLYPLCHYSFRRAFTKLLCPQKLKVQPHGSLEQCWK
Conditions: not given
Take `C[C@H]1CCCN1CCCOc1ccc(/C(CN2CCCCC2=O)=N/OC(C)(C)C)cc1`: the Ki is below 100 nM.

A further experiment addresses Histamine H3 receptor (Homo sapiens, UniProt Q9Y5N1). In words: Displacement of [3H]N-alpha-Methylhistamine from human recombinant H3 receptor expressed in HEK293 cells by competitive binding assay.
Conditions: not given
In kind it is cell-based. For orientation: Loss of bound radioactivity is the signal in a displacement assay; it reports binding, not function.
Regarding `CCN1CCc2nc(OC3CCN(C4CCC4)CC3)ncc2C1=O`, the IC50 (commonly the concentration needed to halve the response being measured) is at most 50 nM.

Still in this experiment, the particulars now being: read-out: Ki.
As for `O=c1cccnn1-c1ccc2nc(N3CC[C@@H](N4CCCCC4)C3)sc2c1`, the Ki was below 25 nM.

The same experiment, now with this note: read-out: pKi (converted).
Regarding `CC(C)N1CCCN(C(=O)C2CCN(c3ccc(C(F)(F)F)nc3)CC2)CC1`, the Ki was 0.126 nM. Same read-out and setting: then `O=C(c1ccccc1)n1c(=O)ccn(CCCN2CCCCC2)c1=O`, with 1150 nM; and `O=C(c1ccccc1)n1c(=O)ccn(Cc2ccc(OCCCN3CCCCC3)cc2)c1=O`, with 7.24 nM; and `Cc1cn(Cc2ccc(OCCCN3CCCCC3)cc2)c(=O)n(C(=O)c2ccccc2)c1=O`, with 31.6 nM. Take `Cc1c(C)n(Cc2ccc(OCCCN3CCCCC3)cc2)c(=O)n(C(=O)c2ccccc2)c1=O`: the Ki is 34.7 nM. Same read-out and setting: then `CC(C)(C)OC(=O)n1ccc(=O)n(Cc2ccc(OCCCN3CCCCC3)cc2)c1=O`, with 50.1 nM. Still for that read-out and setting: then `Cc1cn(C(=O)OC(C)(C)C)c(=O)n(Cc2ccc(OCCCN3CCCCC3)cc2)c1=O`, with 46.8 nM; and `Cc1c(C)n(C(=O)OC(C)(C)C)c(=O)n(Cc2ccc(OCCCN3CCCCC3)cc2)c1=O`, with 38 nM; and `O=c1ccn(CCCN2CCCCC2)c(=O)[nH]1`, with 7080 nM.

Regarding `O=c1ccn(Cc2ccc(OCCCN3CCCCC3)cc2)c(=O)[nH]1`, the Ki is 12.9 nM. Still for that read-out and setting: then `Cc1cn(Cc2ccc(OCCCN3CCCCC3)cc2)c(=O)[nH]c1=O`, with 7.08 nM; and `Cc1c(C)n(Cc2ccc(OCCCN3CCCCC3)cc2)c(=O)[nH]c1=O`, with 17.8 nM. The same measure, in the same setting: then `O=c1cc[nH]c(=O)n1Cc1ccc(OCCCN2CCCCC2)cc1`, with 28.8 nM; and `Cc1c[nH]c(=O)n(Cc2ccc(OCCCN3CCCCC3)cc2)c1=O`, with 63.1 nM.
